Data set [1] relates to TGF-β1 growth inhibition of Mv1Lu cells. Kind of data set: Mv1Lu growth inhibition assay with TGF-β1. It is filed as cell-based, mink. The conditions noted are these: TGF-β1 1.5 ng/mL serially diluted to 0.095 ng/mL with compound, FIGS. 4A-4D. The protocol:
Mv1Lu cells were purchased from ATCC. Growth inhibition assays for Mv1Lu and CHO cells were performed as described by Danielpour et al., in J. Cell. Physiol., 1989, 138, 79-86, using 0.2% fetal bovine serum to limit binding proteins present in serum. Mv1Lu cells were cultured in the presence of a standard TGF-β dilution curve starting at 1.5 ng/mL and serially diluted to 0.047 ng/mL or in the presence of TGF-β1 (1.5 ng/mL serially diluted to 0.095 ng/mL) with the compound. For each tested compound, one assay contained only the compound and no added TGF-β1.

Data set [2] concerns TGF-β1 stimulated growth of CHO cells. Kind of data set: CHO cell growth stimulation by TGF-β1. It is filed as cell-based, Chinese hamster. The conditions noted are these: 1 L (FIG. 5A) and 2 μL (FIG. 5B) of blocking compound. The protocol:
(§1) Mv1Lu cells were purchased from ATCC. Growth inhibition assays for Mv1Lu and CHO cells were performed as described by Danielpour et al., in J. Cell. Physiol., 1989, 138, 79-86, using 0.2% fetal bovine serum to limit binding proteins present in serum.

The target of a further data set is ^125I labeled TGF-β1 (Homo sapiens, UniProt P01137). Kind of data set: 125I labeled TGF-β1 remaining in solution after incubation with compound and centrifugation. The conditions noted are these: for Amount of ^125I labeled TGF-β1 in solution: 0.5 μL compound in 100 μL DMEM, 0.2% FBS overnight, 90 μL supernatant counted. The protocol: About 10 μL of ^125I labeled TGF-β1 (22.78 μCi/ml, 6.3 pmole/ml) was incubated with 0.5 μL of the compound in 100 μL of DMEM, 0.2% FBS overnight and then centrifuged. […] However, for compound NSC 119889 there was approximately a 40% increase in the amount of ^125I that remained in solution relative to the control. While this might be due to the compound decreasing adherence of TGF-β to the microcentrifuge tube, the lack of precipitation of the ^125I labeled TGF-β is consistent with the compounds blocking interaction of TGF-β1 with the receptor possibly by direct interaction with the receptor.

In the next data set the target is T1, TβRIII (Homo sapiens, UniProt Q03167).
T1 construct: purchased R&D Systems
T1 sequence (Q03167 21-787 limits assumed): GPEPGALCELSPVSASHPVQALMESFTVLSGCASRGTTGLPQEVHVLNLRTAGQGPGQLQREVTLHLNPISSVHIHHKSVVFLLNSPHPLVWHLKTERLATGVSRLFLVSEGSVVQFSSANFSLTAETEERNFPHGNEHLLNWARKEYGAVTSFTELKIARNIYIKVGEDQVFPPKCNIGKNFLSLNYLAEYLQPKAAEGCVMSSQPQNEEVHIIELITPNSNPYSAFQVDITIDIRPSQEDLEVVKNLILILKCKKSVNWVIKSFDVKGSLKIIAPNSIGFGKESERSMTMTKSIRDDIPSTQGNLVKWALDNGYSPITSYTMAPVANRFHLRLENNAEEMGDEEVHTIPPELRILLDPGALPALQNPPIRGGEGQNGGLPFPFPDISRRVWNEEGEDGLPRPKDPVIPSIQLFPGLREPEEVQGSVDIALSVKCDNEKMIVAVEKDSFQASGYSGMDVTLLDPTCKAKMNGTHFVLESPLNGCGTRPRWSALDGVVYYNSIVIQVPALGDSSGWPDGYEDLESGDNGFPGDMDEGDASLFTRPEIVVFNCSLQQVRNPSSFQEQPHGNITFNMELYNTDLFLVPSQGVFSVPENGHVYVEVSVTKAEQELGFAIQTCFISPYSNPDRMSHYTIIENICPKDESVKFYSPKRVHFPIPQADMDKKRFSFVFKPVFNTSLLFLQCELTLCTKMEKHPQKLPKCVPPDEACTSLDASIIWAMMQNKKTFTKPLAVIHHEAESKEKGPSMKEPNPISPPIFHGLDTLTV
Kind of data set: Soluble TβRIII receptor assay with 125I labeled TGF-β1. It is filed as binding. The conditions noted are these: for Amount of ^125I labeled TGF-β1 bound to TβRIII: soluble receptor assay, control 25048. Here is the method:
The compound NSC 119889 and related molecules also block soluble TGF-β receptor type III (TβRIII). TβRIII binds TGF-β1 and TGF-β2 and is involved in presenting TGF-β2 to TβRII. […] TβRIII was purchased from R&D Systems (Minneapolis, Minn.). It was used at concentration of 500 ng/mL in the soluble receptor assay when Immulon 2HB plates were used and at 1 μg/mL when Immulon 1B plates were used.

Data set [3] concerns TGF-β1 activity in CHO cells carrying the plasmid pTARE-Luc. Nature of the data set: pTARE luciferase reporter assay in CHO cells. It is filed as cell-based, Chinese hamster. The conditions noted are these: compound 1 μL/mL with added TGF-β1 25 ng/mL, FIG. 2B. Here is the method: The pTARE luciferase reporter system was purchased from Stratagene (La Jolla, Calif.) and transfected into CHO (Chinese Hamster Ovary) cells that were purchased from ATCC (American Type Culture Collection). The plasmid pSV2neo was co-transfected with pTARE at a 40 fold lower concentration to allow for selection of colonies that received plasmid DNA using G418. Luciferase assays were performed as described using Luciferase assay system and reporter lysis buffer (Promega, Madison, Wis.). Luciferase was quantitated using a luminometer (Turner Designs, Inc., Sunnyvale, Calif.).
Compounds of Table 1 (see Example 1 above) were further tested for their ability to modulate TGF-β1 activity. Briefly, the CHO cells carrying the plasmid pTARE-Luc were treated either with each compound individually (1 μL/mL) or with added TGF-β1 (25 ng/mL). Without being bound by any theory, it is believed that testing the compound by itself in this assay allows the identification of candidate TβRII agonists while testing the chemical in the presence of TGF-β1 allows the identification of candidate TGF-β1 antagonists.

The subject of a further data set is CHO cells. Nature of the data set: CHO cell growth, tritiated thymidine incorporation. It counts as cell-based, Chinese hamster. The conditions noted are these: for amount of radioactivity incorporated into CHO cells: tritiated thymidine. Here is the method: as §1
Chinese hamster ovarian (i.e., CHO) cells were cultured in the presence of compounds and tested for growth in the presence of tritiated thymidine. […] The reported value is the average of duplicate assays.

Data set [4] is described as follows: Precipitate formation / solubility. It is filed as physicochemical. The conditions noted are these: for Solubility: Table 3; for precipitate formation when diluted into water: room temperature, centrifugation at 17,000×G.
The target in a further data set is T2, TβRII (Homo sapiens, UniProt P37173).
T2 construct: purchased R&D Systems
Nature of the data set: Soluble TβRII binding assay with 125I labeled TGF-β1. The conditions noted are these: I-125 TGF-β1, increasing concentration of competitor, FIG. 6. The protocol:
Immulon 1B or 2 HB 96 well plates (Dynex Technologies, Inc., Chantilly, Va.) were coated with 100 μL/well of 500 ng/mL TβRII (R&D Systems, Minneapolis, Minn.) in phosphate buffered saline overnight at 4° C. and then blocked for 1 hr with 150 μL/well of 1% bovine serum albumin, 150 mM NaCl, 100 mM tris-HCl, pH 7.6. Following washing with PBS/0.05% Tween 20 (wash buffer, i.e., “WB”) samples were serially diluted in 1 mg/mL BSA, 0.15 M NaCl, 100 mM tris-HCl, pH 7.6, 0.05% Tween 20 containing 5 ng/mL of ^125I labeled TGF-β1 as described by Frolik et al., in J. Biol. Chem., 1984, 259, 10995-11000. Samples were incubated in the wells with TβRII for one hour at room temperature and then the plates were washed with WB. Individual wells were separated and counted.
To identify novel organic chemicals that block TGF-B activity, about 30,000 chemicals from the National Cancer Institute Developmental Therapeutics program open repository were screened. This repository contains about 140,000 chemicals. For screening, soluble TBRII was attached to an immulon 2 HB plate and then blocked with BSA. About 1 μL of each test chemical was diluted from the stock plate into 125 μL of dilution buffer containing 5 ng/mL I-125 labeled TGF-β1. In some cases, 1 μL of four chemicals each was combined to allow higher throughput. […]

The record followed here is patent US20090176870A1, “TGF-BETA MODULATORS AND METHODS FOR USING THE SAME” (MARSHFIELD CLINIC, priority 2005, published 2009).

Chain of ^125I labeled TGF-β1 (P01137 279-390 limits assumed): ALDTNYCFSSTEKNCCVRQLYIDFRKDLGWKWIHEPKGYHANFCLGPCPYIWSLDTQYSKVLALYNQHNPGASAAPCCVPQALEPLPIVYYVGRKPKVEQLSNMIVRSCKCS
T2 sequence (P37173 23-166 limits assumed, species assumed): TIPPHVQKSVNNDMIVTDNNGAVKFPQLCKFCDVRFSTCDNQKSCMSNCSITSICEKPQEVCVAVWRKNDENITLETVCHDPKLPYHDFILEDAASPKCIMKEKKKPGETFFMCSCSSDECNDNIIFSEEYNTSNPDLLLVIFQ

On to `O=C(O)c1c(Br)c(Br)c(Br)c(Br)c1C1c2ccc(O)cc2Oc2cc(O)ccc21` [NSC 119889], for which the “blocking of growth inhibition of TGF-β1” value in data set [1] is listed as “blocks growth inhibition of TGF-β1”. The “blocking of TGF-β1 stimulation of CHO cell growth” value in data set [2] is “This stimulation was blocked”. For the same compound, the “Amount of ^125I labeled TGF-β1 in solution” value at ^125I labeled TGF-β1 (first value column) amounted to 38324; at ^125I labeled TGF-β1 (second value column), 27159; on ^125I labeled TGF-β1 (third value column), 29239. In addition, at ^125I labeled TGF-β1 (relative to control), the “increase in the amount of ^125I that remained in solution relative to the control” value is recorded as ~40%. The “blocking of binding of ^125I labeled TGF-β1 to TβRIII (in words)” value at TβRIII is reported as “blocks binding of the ^125I labeled TGF-β1 to TβRIII”. Further, the “Amount of ^125I labeled TGF-β1 bound to TβRIII” value on TβRIII was determined as 746. Besides, the “luciferase activity in the presence of TGF-β1” value in data set [3] is “marked reduction in luciferase activity”. Also, the “amount of radioactivity incorporated into CHO cells” value in the data set with CHO cells (Experiment 1, average of duplicate assays) was found to be 1475; in the data set with CHO cells (Experiment 2, average of duplicate assays) it was 936. The “growth of CHO cells (in words)” value in the data set on CHO cells (two experiments) was “did not substantially inhibit growth of CHO cells”. In data set [4], the Solubility entry is listed as “no ppt”. For the same compound, in data set [4], the “precipitate formation when diluted into water” value (“precipitate formation” below) was “form less or no precipitate”.
As to `O=C(O)C1CCCCC1c1c2ccc(=O)c(O)c-2oc2c(O)c(O)ccc12` (stereo not shown) [NSC 119910], the “Amount of ^125I labeled TGF-β1 in solution” value at ^125I labeled TGF-β1 (second value column) is 24924. The “Amount of ^125I labeled TGF-β1 in solution” value on ^125I labeled TGF-β1 (third value column) was determined as 20587. In addition, in data set [4], the Solubility entry is “ppt” and the “precipitate formation” value is recorded as “form precipitates”.
Regarding `O=C(O)/C=C/c1c2ccc(=O)c(O)c-2oc2c(O)c(O)ccc12` [NSC 119911], the “blocking of growth inhibition of TGF-β1” value in data set [1] is reported as “blocks growth inhibition by TGF-β1”. For the same compound, the “Amount of ^125I labeled TGF-β1 in solution” value at ^125I labeled TGF-β1 (first value column) is 33990; at ^125I labeled TGF-β1 (second value column), 25748; on ^125I labeled TGF-β1 (third value column), 24534. Further, the “Amount of ^125I labeled TGF-β1 bound to TβRIII” value on TβRIII turned out to be 769. In addition, in data set [4], the Solubility entry is reported as “ppt”. Moreover, the “precipitate formation” value in data set [4] is “form precipitates”.
With `CC1C2C=CC1C(c1c3ccc(=O)c(O)c-3oc3c(O)c(O)ccc13)C2C(=O)O` (stereo not shown) [NSC 119913], the “Amount of ^125I labeled TGF-β1 in solution” value on ^125I labeled TGF-β1 (second value column) is given as 27614. Besides, the “Amount of ^125I labeled TGF-β1 in solution” value on ^125I labeled TGF-β1 (third value column) is 27960. In data set [4], the Solubility entry is recorded as “no ppt” and the “precipitate formation” value was “form less or no precipitate”.
As to `O=C(O)CCc1c2ccc(=O)c(O)c-2oc2c(O)c(O)ccc12` [NSC 119915], the “blocking of growth inhibition of TGF-β1” value in data set [1] is “blocks growth inhibition of TGF-β1”. Further, the “Amount of ^125I labeled TGF-β1 in solution” value at ^125I labeled TGF-β1 (first value column) was 33660; on ^125I labeled TGF-β1 (second value column), 25308; on ^125I labeled TGF-β1 (third value column), 20770. Moreover, the “Amount of ^125I labeled TGF-β1 bound to TβRIII” value at TβRIII is 726. Besides, in data set [4], the Solubility result is on record as “ppt”. Moreover, in data set [4], the “precipitate formation” value is “form precipitates”.
In the case of `Oc1cc(O)c2c(c1)OC(c1ccc(O)c(O)c1)C(OC1(c3cc(O)c(O)c(O)c3)Oc3cc(O)cc(O)c3C(O)C1O)C2` (stereo not shown) [NSC 143101], the “Amount of ^125I labeled TGF-β1 in solution” value on ^125I labeled TGF-β1 (first value column) came to 34567. Also, the Solubility entry in data set [4] is “no ppt”.
`O=C(O)c1c[nH]c2cc(OCc3ccccc3)ccc2c1=O` [NSC 306960]: the “blocking of growth inhibition of TGF-β1” value in data set [1] was “did not block the growth inhibition activity of TGF-β1”. Moreover, the “Amount of ^125I labeled TGF-β1 in solution” value on ^125I labeled TGF-β1 (first value column) turned out to be 32155. In data set [3], the “luciferase activity in the presence of TGF-β1” value is “did not inhibit TGF-β1 induction of luciferase activity”. The Solubility entry in data set [4] was “no ppt”.
On to “TGF-β1: non-labeled TGF-β1 protein used as competitor for TβRII in the binding competition curve”, for which, in the data set with TβRII, the “binding competition vs TGF-β1 for soluble TβRII, effective concentration range” value was “nanomolar range”.
